Source: patent US8076329B2, “Histamine H3-receptor ligands and their therapeutic applications” (Bioprojet, priority 2005, dated 2011)
Values joined by “and” are separate entries in the source; they are usually repeats but may differ in a detail not shown here. Identical values can stand only once. Counter-ions that a name gives are not always drawn.

Tests used:
[1] = target: human histamine H3 receptors (Homo sapiens, UniProt Q9Y5N1); assay: H3 binding ([125I]iodoproxyfan displacement on membranes); conditions: compounds of the invention; membranes expressing human H3 receptors
Method: Membranes expressing human histamine H3 receptors were incubated 1 hour at room temperature in binding buffer containing 50 mM Na2HPO4/KH2PO4 pH 7.5 in a final volume of 200 μl. […] The reaction was stopped by rapid filtration through GF/B filters (pre-soaked for 2 hours with 0.3% polyethyleneimine) followed by 3 ice cold binding buffer washes. The filter-bound radioactivity was measured in a liquid scintillation counter with 50 μl of scintillation fluid.

CYP2D6 = CYP2D6 (Homo sapiens, UniProt P10635); assay: Cytochrome inhibition, fluorometric microtiter plate assay; type: in vitro ADME; conditions: CYP2D6 cytochrome inhibition (IC50, concentrations in μM for 50% inhibition), human recombinant CYP2D6, substrate AMMC, compounds of the invention
Method: (§1) The ability of drug in human to inhibit the catalytic activity of cytochrome P-450 isoforms was assayed using microtiter plate-based, fluorometric assays for the activities of the five human major CYP forms. Inhibition potential was determined in vitro after incubation of fluorescent model substrates over various incubation time with human recombinant cytochrome isoforms in the absence or in presence of increasing concentrations of test molecules (from 1 nM to 100 μM), in comparison with specific CYP isoform inhibitors.
(§2) Incubation of drug was carried out at 37° C.±0.5° C. under agitation in the presence of human recombinant cytochrome P-450 isoforms and a NADPH generating system. The incubation conditions for each cytochrome isoform were as follows: […]

CYP3A4 = CYP3A4 (Homo sapiens, UniProt P08684); assay: as above; type: in vitro ADME; conditions: CYP3A4 cytochrome inhibition (IC50, concentrations in μM for 50% inhibition), human recombinant CYP3A4, substrate BFC, compounds of the invention
Method: as §1, §2

CYP2D6, sequence (P10635 whole entry, canonical isoform): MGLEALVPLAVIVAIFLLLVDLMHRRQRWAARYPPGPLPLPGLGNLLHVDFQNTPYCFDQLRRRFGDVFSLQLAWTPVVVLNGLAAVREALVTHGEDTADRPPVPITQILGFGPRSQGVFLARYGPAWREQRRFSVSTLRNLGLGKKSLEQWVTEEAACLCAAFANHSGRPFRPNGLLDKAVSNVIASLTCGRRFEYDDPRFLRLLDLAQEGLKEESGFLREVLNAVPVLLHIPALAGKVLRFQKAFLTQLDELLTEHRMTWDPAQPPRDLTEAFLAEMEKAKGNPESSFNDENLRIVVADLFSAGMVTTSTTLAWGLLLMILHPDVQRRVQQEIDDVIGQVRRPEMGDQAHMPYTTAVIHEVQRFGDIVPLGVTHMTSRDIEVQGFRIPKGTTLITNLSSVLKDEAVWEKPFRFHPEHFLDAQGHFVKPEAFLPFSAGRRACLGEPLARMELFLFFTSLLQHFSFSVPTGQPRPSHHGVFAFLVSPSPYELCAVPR
human histamine H3 receptors, sequence (Q9Y5N1 whole entry): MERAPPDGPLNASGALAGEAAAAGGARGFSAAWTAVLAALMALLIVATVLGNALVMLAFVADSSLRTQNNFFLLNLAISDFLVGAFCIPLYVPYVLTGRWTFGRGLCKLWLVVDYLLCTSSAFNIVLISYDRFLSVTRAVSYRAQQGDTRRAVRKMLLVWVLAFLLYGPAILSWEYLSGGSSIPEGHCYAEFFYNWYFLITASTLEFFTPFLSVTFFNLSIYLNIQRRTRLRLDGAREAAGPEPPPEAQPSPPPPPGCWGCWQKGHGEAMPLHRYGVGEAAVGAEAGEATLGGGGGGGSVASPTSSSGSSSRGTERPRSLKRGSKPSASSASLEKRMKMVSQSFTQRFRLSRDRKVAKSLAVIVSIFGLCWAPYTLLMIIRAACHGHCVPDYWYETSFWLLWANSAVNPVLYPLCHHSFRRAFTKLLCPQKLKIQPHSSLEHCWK
CYP3A4, sequence (P08684 whole entry): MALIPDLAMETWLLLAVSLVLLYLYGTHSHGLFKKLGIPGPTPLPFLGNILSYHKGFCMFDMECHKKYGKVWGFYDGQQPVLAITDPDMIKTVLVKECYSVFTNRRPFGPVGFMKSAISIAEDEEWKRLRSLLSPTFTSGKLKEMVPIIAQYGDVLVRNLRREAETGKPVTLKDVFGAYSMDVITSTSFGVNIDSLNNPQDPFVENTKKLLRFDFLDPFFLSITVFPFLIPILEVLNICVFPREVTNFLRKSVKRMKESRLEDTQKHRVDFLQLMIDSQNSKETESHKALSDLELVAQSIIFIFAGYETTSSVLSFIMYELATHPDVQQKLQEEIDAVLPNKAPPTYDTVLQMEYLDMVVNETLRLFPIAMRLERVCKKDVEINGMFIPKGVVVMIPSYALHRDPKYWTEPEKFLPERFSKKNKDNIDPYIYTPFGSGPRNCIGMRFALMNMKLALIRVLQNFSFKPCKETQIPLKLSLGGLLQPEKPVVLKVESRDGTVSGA

Row | SMILES | melting point [°C] | Ki [1] [nM] | IC50 (CYP2D6) | IC50 (CYP3A4) | IC50 (CYP2D6; human, recombinant human CYP2D6, probe AMMC) [µM] | IC50 (CYP3A4; human, recombinant human CYP3A4, probe BFC) [µM]
1 | C[C@H]1C[C@H](C)CN(CCCOc2ccc([C@H]3CC[C@H](N(C)C)CC3)cc2)C1 (as salt: hydrochloride) [Example 12, (3S,5S)-1-{3-[4-(trans-4-dimethylaminocyclohex-1-yl)phenoxy]propyl}-3,5-dimethylpiperidine] | 240 | – | – | – | – | –
2 | c1cc(-c2ccc(OCCCN3CCCCC3)cc2)ccc1CCCN1CCCCC1 (as salt: oxalate) [Example 48] | 130 | – | – | – | – | –
3 | CC1CCCN1CCCOc1ccc([C@H]2CC[C@H](O)CC2)cc1 (stereo partly drawn) (as salt: oxalate) [Example 66, 1-{3-[trans-4-(4-hydroxycyclohexyl)phenoxy]propyl}-2-methylpyrrolidine] | 80 | – | – | – | – | –
4 | C[C@H]1C[C@H](C)CN(CCCOc2ccc(C(=O)N(C)C)cc2)C1 (relative stereo) [Example 1, trans-1-{3-[4-(N,N-dimethylcarbamoyl)phenoxy]propyl}-3,5-dimethylpiperidine] | – | 2.9 | > 10 µM | 32 µM | – | –
5 | C[C@@H]1C[C@@H](C)CN(CCCOc2ccc(C3=NCCC3)cc2)C1 (relative stereo) [Example 17, trans-1-{3-[4-(4,5-dihydro-3H-pyrrol-2-yl)phenoxy]propyl}-3,5-dimethylpiperidine] | – | 0.43 | – | – | – | –
6 | C[C@H]1CCCN(CCCOc2ccc(C3CCC(N4CCOCC4)CC3)cc2)C1 (single isomer, unassigned) [Example 41, dihydrochloride] | – | 0.13 | > 10 µM and 14 µM | > 1 µM and 13 µM | – | –
7 | O=C(c1ccccc1)c1ccc(OCCCN2CCCCC2)cc1 [Example 3] | – | 1.1 | 32 µM | 18 µM | – | –
8 | CCCC(O)(CCC)c1ccc(OCCCN2CCCCC2)cc1 [Example 7, 1-{3-[4-(1-hydroxy-1-propylbutyl)phenoxy]propyl}piperidine] | – | 0.74 | 39 µM | 4 µM | – | –
9 | OC1(c2ccc(OCCCN3CCCCC3)cc2)CCCC1 [Example 8, 1-{3-[4-(1-hydroxycyclopentyl)phenoxy]propyl}piperidine] | – | 0.82 | > 100 µM | 20 µM | – | –
10 | O=C(O)C(=O)O.O=C(O)C(=O)O.c1cc(C2=NCCCC2)ccc1OCCCN1CCCCC1 [Example 15, 6-[4-(3-piperidinopropoxy)phenyl]-2,3,4,5-tetrahydropyridine] | 104 | – | > 10 µM | 46 µM | – | –
11 | Cc1ccccc1-c1ccc(OCCCN2CCCCC2)cc1 [Example 28, 1-{3-[(2′-methylbiphenyl-4-yl)oxy]propyl}piperidine] | – | 0.53 | – | – | 10 | 10
12 | c1cc(-c2ccc(OCCCN3CCCCC3)cc2)cs1 [Example 29, 1-{3-[4-(3-thienyl)phenoxy]propyl}piperidine] | – | 0.88 | 24 µM | > 100 µM | – | –
13 | c1cncc(-c2ccc(OCCCN3CCCCC3)cc2)c1 [Example 32, 1-{3-[4-(3-pyridyl)phenoxy]propyl}piperidine] | – | 0.22 | 7 µM | 9 µM | – | –
14 | c1cc(-c2ccc(OCCCN3CCCCC3)cc2)ccc1OCCCN1CCCCC1 [Example 35, di-1,1′-{(biphenyl-4,4′-diyl)bis[oxy(propan-1,3-diyl)]}piperidine] | – | 0.1 | 71 µM | 5 µM | – | –
15 | c1cc(-c2ccc(OCCCN3CCCC3)cc2)ccc1OCCCN1CCCCC1 [Example 37, 1-(3-{[4′-(3-piperidinopropoxy)biphenyl-4-yl]oxy}propyl)pyrrolidine] | 105 to 108 | – | > 10 µM | 15 µM | – | –
16 | c1cc(-c2ccc(OCCCN3CCCCC3)cc2)ccc1CN1CCCCC1 [Example 42, 1-(3-{[4′-(piperidinomethyl)biphenyl-4-yl]oxy}propyl)piperidine] | 90 | – | > 10 µM | > 10 µM | – | –
17 | Cc1cc(-c2ccc(OCCCN3CCC[C@H](C)C3)cc2)cc[n+]1[O-] [Example 54, 2-methyl-4-(4-{3-[(3S)-3-methylpiperidin-1-yl]propoxy}phenyl)pyridine 1-oxide] | – | 0.4 | > 10 µM | > 1 µM | – | –
18 | C[C@H]1CCCN(CCCOc2ccc(-c3cc[n+](C)cc3)cc2)C1 [Example 57, 1-methyl-4-(4-{3-[(3S)-3-methylpiperidin-1-yl]propoxy}phenyl)pyridinium] | – | – | > 10 µM | > 10 µM | – | –
19 | C[C@H]1CCCN(CCCOc2ccc(-c3ccnc(OCCCN4CCCCC4)c3)cc2)C1 [Example 58, 2-(3-piperidinopropoxy)-4-(4-{3-[(3S)-3-methylpiperidin-1-yl]propoxy}phenyl)-pyridine] | – | 0.061 | > 10 µM | > 10 µM | – | –
20 | OC1CCC(c2ccc(OCCCN3CCCCC3)cc2)CC1 (stereo not shown) [Example 60, 1-{3-[4-(4-hydroxycyclohexyl)phenoxy]propyl}piperidine] | – | – | > 10 µM | > 10 µM | – | –
21 | C[C@H]1CCCN(CCCOc2ccc([C@H]3CC[C@H](O)CC3)cc2)C1 [Example 61, (3S)-1-{3-[trans-4-(4-hydroxycyclohexyl)phenoxy]propyl}-3-methylpiperidine] | – | – | > 10 µM | > 10 µM | – | –
22 | C[C@H]1CCCN(CCCOc2ccc([C@H]3CC[C@H](O)CC3)cc2)C1 [Example 62, (3S)-1-{3-[4-(4-hydroxycyclohexyl)phenoxy]propyl}-3-methylpiperidine] | – | 0.554 | – | – | – | –
23 | O[C@H]1CC[C@H](c2ccc(OCCCN3CCCC3)cc2)CC1 [Example 63, 1-{3-[trans-4-(4-hydroxycyclohexyl)phenoxy]propyl}pyrrolidine] | – | – | > 10 µM | > 10 µM | – | –
24 | C[C@H]1CCCN(CCCOc2ccc(C3CCC(C)(O)CC3)cc2)C1 (stereo partly drawn) [Example 64, (3S)-1-{3-[4-(4-hydroxy-4-methylcyclohexyl)phenoxy]propyl}-3-methylpiperidine] | – | – | > 10 µM | > 10 µM | – | –
25 | O[C@H]1CC[C@H](c2ccc(OCCCN3CCCCC3)cc2)CC1 [Example 65, 1-{3-[trans-4-(4-hydroxycyclohexyl)phenoxy]propyl}piperidine] | – | – | > 10 µM | > 10 µM | – | –
26 | CC1CCCN1CCCOc1ccc([C@H]2CC[C@H](O)CC2)cc1 (stereo partly drawn) [Example 66, 1-{3-[trans-4-(4-hydroxycyclohexyl)phenoxy]propyl}-2-methylpyrrolidine] | – | 0.83 | > 10 µM | > 10 µM | – | –
27 | CN1CCC(OCc2ccc(OCCCN3CCCCC3)cc2)CC1 [Example 67, 1-methyl-4-[4-(3-piperidinopropoxy)benzyloxy]piperidine] | – | – | > 10 µM | > 10 µM | – | –
28 | CN1CCC(COCc2ccc(OCCCN3CCCCC3)cc2)CC1 [Example 68, 1-methyl-4-[4-(3-piperidinopropoxy)benzyloxymethyl]piperidine] | – | – | > 10 µM | > 10 µM | – | –
29 | CN1CCC(CCOCc2ccc(OCCCN3CCCCC3)cc2)CC1 [Example 69, 1-methyl-4-{2-[4-(3-piperidinopropoxy)benzyloxy]ethyl}piperidine] | – | 1.19 | > 10 µM | > 10 µM | – | –
30 | CCN1CCCC(OCc2ccc(OCCCN3CCCCC3)cc2)C1 (stereo not shown) [Example 70, 1-ethyl-3-[4-(3-piperidinopropoxy)benzyloxy]piperidine] | – | 0.35 | – | – | – | –
